In a melting point compilation (Tetko et al.; mined from patent text by program, amines drawn as free bases though some values may be those of a salt) one finds melting point data, which are given here for 64 compounds.

Some results are limits rather than exact numbers.

For `CCOc1ccc2c(c1)n(C1CCCCC1)c(=O)n2Cc1ccc([N+](=O)[O-])cc1OC`, the melting point (in general, the temperature, or range, at which the solid turns liquid) was found to be 120 °C.
Under `Cn1c(C(F)(F)F)cc(=O)n(-c2ccc(Cl)c(C=C(Cl)C(=O)O)c2)c1=O` stands 216 to 217 °C.
Under `COc1ccc(N2CCN(CCC(O)COc3ccc(F)cc3)CC2)cc1` (centres undefined) stands 78 to 80 °C.
Under `CNC(=O)C(Cc1ccc(OC)cc1)NC(=O)C(CC(C)C)C(CC(=O)OC)SC(C)=O` (centres undefined) stands 118 to 135 °C.
On to `CC1(C#N)CCCc2nc(-c3ccccc3)ccc21` (centres undefined), for which the melting point fell in the range of 114 to 116 °C.
Under `COc1cc2c(cc1OCc1ccccc1)CCCC(=O)N2Cc1cc(OC)c(OC)c(OC)c1` stands 129 to 130 °C.
Under `O=C(Nc1nccs1)c1nc(-c2ccc([N+](=O)[O-])cc2)[nH]c1-c1ccc(CO)cc1` stands 249 to 252 °C; under `CCCCNC(=O)N1CC(Oc2ccc(C(F)(F)F)cc2)C1`, 132 to 134 °C; under `Cc1cn(NC(=O)c2ccccc2C(=O)O)c2ccccc12`, 191 to 193 °C.
Under `O=C(O)c1cn(C2CC2)c2c(F)c(N3CCC(n4cnnn4)C3)c(F)cc2c1=O` (centres undefined) stands 268 to 270 °C; under `CCOC(=O)c1nc2cc(NC(=O)c3c(C(=O)N4CCC4)cnn3C)ccn2n1`, 252 to 255 °C.
Consider `CC(=O)n1ncn(N=Cc2cccnc2)c1=O`, for which the melting point was in the range of 164 to 166 °C.
Under `CCOC(=O)C1C(=C=S)NCC1CCc1ccc(C(=O)O)cc1` (centres undefined) stands 145 to 148 °C; under `CCOC(=O)N1C=CC2=NC(C)=NC(N(C)c3ccccc3)N21` (centres undefined), 202 °C; under `COc1ccc(-c2nc(C(O)(C(F)(F)F)C(F)(F)F)[nH]c2-c2ccc(OC)cc2)cc1`, 144 to 146 °C.
The same measure for `CCCOc1cc(OC)c2c(c1)C(=O)c1cccc(OC(C)C)c1-2`: 114 to 116 °C.
Under `NC(=S)c1sc(-c2ccccc2)nc1N` stands 164 to 167 °C; under `O=C(O)C(CC1CCCC1)c1ccc(-c2cccnc2)cc1` (centres undefined), 136 to 138 °C.
The compound `Clc1nc(NCc2ccc3c(c2)OCO3)c2c3c(sc2n1)CCCC3` returned a melting point of 222 °C.
The same measure for `CCCCOC(=O)c1cccc(-c2c3nn(-c4ccc(Cl)cc4)c(=O)c-3c[nH]c2C)c1`: 185 to 190 °C.
Under `CCCCCS(=O)(=O)NC(=O)CCCc1cc(OCCCC)nn1Cc1ccc(Cl)cc1Cl` stands 121 to 122 °C; under `CCCc1nn(C)c2c(=S)[nH]c(-c3cc(S(=O)(=O)N4C[C@@H](C)N[C@@H](C)C4)ccc3OCC)nc12`, 196 to 199 °C; under `CC(C)(O)COc1c(-c2ccc(S(C)(=O)=O)cc2)cnn(-c2ccc(F)c(Cl)c2)c1=O`, 122 to 124 °C.
Under `N=C(NO)c1ccc(-c2cccc(-c3nc4ccc(C(=N)NO)cc4[nH]3)n2)cc1` stands over 290 °C; under `O=C1CCc2cc(Br)c3c(c21)CCO3`, 149 to 150 °C.
Take `Oc1cc(-c2ccccc2)ncn1`: the melting point fell in the range of 266 to 267 °C.
Take `CCCCc1nc(I)c(CO)[nH]1`: the melting point worked out at 166 °C.
The same measure for `COc1ccc(C2=NN(C(C)CCC(=O)Nc3ccc(C4=NNC(=O)CC4C)cc3)C(=O)C3CC=CCC23)cc1OC` (centres undefined): 154 to 157 °C; for `CC(C)c1ccc(O)c(C(C)C)c1NC(=O)CN1CCN(CCSc2nc3cccc(C(F)(F)F)c3o2)CC1`: 82 to 84 °C.
The same measure for `COc1c(CC#N)cccc1CC#N`: 58 to 59.5 °C.
The same measure for `CN1CCC(=C2c3ccccc3COc3ccc(C#N)cc32)CC1`: 134 to 136 °C; for `N#Cc1c(CCl)[nH]c(=O)[nH]c1=O`: 229 °C.
`COc1ccc(CCCc2nnc(-c3ccc4occc4c3)o2)cc1`: the melting point lay within 116 to 117 °C.
Under `CCCCCCCCCC(=O)Nc1ccc(S(=O)(=O)Nc2nnc(CO)s2)cc1` stands 69 to 70 °C.
Under `Clc1cccc(C2CCN(CCCOc3ccc4scnc4c3)CC2)c1Cl` stands 114 to 116 °C; under `Brc1cnc2c(c1)ncn2-c1cccc(CN2CCOCC2)c1`, 176 to 178 °C; under `Nc1nc(-c2ccc(CCNC(=O)Cc3ccccc3)cc2)cs1`, 176 to 177 °C.
As for `CCCCc1nn(-c2ccccc2C(F)(F)F)c(=O)[nH]1`, the melting point lay in the range of 124 to 126 °C.
The same measure for `CSc1sc(C(=O)O)c2c1-c1oc(C)nc1CC2`: over 300 °C; for `O=C(O)c1ccc(C(F)(F)F)nc1C(F)(F)F`: 102 to 104 °C; for `CCOC(=O)C(=C(c1ccc(F)cc1)c1ccc(F)cc1)c1nnn(C)n1`: 117 to 118 °C.
Under `O=C(Nc1c([N+](=O)[O-])cnn1-c1c(Cl)cc(S(=O)(=O)C(F)(F)F)cc1Cl)C(Cl)Cl` stands 138 to 142 °C; under `CCn1c(=O)c(C(=O)NCCOC)c(O)c2ccc(C)nc21`, 118 to 120 °C.
Under `COC(=O)C(c1cccc(Br)c1)c1ncnc2cc(OC)c(OC)cc12` (centres undefined) stands 167 to 168 °C; under `O=C(Nc1cccc2c1C(=O)c1c-2n[nH]c1-c1ccc(C(=O)N2CCC[C@H]2CNc2ccccc2)s1)NN1CCOCC1`, over 300 °C.
Regarding `COC(NC(C)=O)(C(=O)O)C(Br)Br` (centres undefined), the melting point fell in the range of 143 to 144 °C.
The same measure for `OCC(OC1CCCCO1)c1ccc2sccc2c1` (single isomer, unassigned; (-)): 62 to 77 °C; for `CCCCCCCCCCCCCCCCCC(=O)c1ccc(O)c(C(=O)O)c1`: 128 to 132 °C.
The compound `Cc1ccc(NC(=S)NCc2ccc3c(c2)CN(C2CCC(=O)NC2=O)C3=O)cc1Cl` (centres undefined) had a melting point of 240 to 242 °C.
Under `CCOC(=O)c1c(O)nc(SCC)n1C(C)C` stands 82 to 84 °C.
`O=C(Nc1ccc(Oc2ccnc(NC3CCCCC3)n2)c2ccccc12)c1cc(F)cc(N2CCOCC2)c1` came in with a melting point of 135 to 136 °C.
The same measure for `O=C1OC(CCl)CN1c1ccc(S(=O)(=O)C(F)(F)F)cc1` (centres undefined): 121 to 123 °C.
Under `O=C(O)c1cnn(-c2ccc(Cl)cc2)c1C1CC1` stands 186 to 187 °C; under `O=c1[nH]c2ccccc2c(O)c1-c1csc(-c2ccncc2)n1`, over 250 °C; under `CSc1ccc2ccc(Br)cc2c1`, 80 to 81 °C.
In turn, `CN(C)C(=O)c1nc2cnc3ccccc3c2[nH]1` had a melting point of 284 to 286 °C.
Consider `C1=CC2(C3OCCO3)OC1c1ccccc12` (centres undefined), for which the melting point lay within 48 to 49 °C.
For `C#CCN(C(C)=O)c1cccc(-c2ccc3nnc(C)n3n2)c1`, the melting point was in the range of 195 to 198 °C.
The same measure for `CCOC(=O)CSc1cc(C)nc(N)n1`: 65 to 69 °C; for `CCN(CC)CCNc1ccc(NCCN(CC)CC)c2c1C(=O)c1c(O)ccc(O)c1C2=O`: 202 to 204 °C.
The same measure for `Clc1cc(Oc2ccc3[nH]ccc3c2)ncn1`: 137 to 138 °C; for `CC(F)C1C(=O)NC1CC(=O)OCc1ccccc1` (mixture of isomers): 40 to 43 °C; for `COC(=O)c1cc2cc(OC)c(OCCCl)cc2nc1N`: 145 to 157 °C.
The compound `CC(=O)Oc1ccc(C(=O)NOCc2ccccc2)cc1` gave a melting point of 120 to 122 °C.
